Assay [1] deals with T1, huPPARα (Homo sapiens, UniProt Q07869).
T1 sequence (Q07869 1-468): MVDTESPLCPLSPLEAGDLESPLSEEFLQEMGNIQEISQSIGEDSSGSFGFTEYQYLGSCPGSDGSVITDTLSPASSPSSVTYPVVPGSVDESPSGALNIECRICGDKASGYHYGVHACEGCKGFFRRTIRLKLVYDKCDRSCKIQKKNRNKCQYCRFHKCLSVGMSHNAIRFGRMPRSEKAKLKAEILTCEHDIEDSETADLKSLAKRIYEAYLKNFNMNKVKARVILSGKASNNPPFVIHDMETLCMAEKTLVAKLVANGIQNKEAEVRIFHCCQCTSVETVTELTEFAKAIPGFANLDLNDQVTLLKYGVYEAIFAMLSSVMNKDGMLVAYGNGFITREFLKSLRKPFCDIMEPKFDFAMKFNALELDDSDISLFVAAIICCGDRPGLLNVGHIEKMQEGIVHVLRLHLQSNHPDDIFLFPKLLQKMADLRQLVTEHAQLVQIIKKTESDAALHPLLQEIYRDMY
T1 sequence (P19793 1-462 partner): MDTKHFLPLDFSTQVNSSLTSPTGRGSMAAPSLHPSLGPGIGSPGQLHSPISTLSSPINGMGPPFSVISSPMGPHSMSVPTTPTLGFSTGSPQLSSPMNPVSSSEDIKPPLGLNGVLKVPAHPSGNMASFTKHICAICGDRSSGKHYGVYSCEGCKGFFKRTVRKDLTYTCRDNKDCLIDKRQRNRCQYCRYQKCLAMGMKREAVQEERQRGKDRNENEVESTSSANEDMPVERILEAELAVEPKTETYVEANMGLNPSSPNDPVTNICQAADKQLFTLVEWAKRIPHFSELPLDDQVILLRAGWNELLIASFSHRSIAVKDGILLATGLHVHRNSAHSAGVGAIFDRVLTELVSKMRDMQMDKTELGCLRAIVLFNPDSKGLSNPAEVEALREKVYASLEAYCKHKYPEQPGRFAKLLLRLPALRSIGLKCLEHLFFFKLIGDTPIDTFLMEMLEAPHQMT
The experiment in a line: DNA-dependent binding (ABCD binding), SPA, huPPARα. The conditions noted are these: displacement of tritium-labeled PPARα agonist radioligand. How it is done:
(§1) DNA-dependent binding (ABCD binding) was carried out using SPA technology with PPAR receptors. Tritium-labeled PPARγ and PPARα agonists were used as radioligands for generating displacement curves and IC50 values with compounds of the invention. Cotransfection assays were carried out in CV-1 cells. The reporter plasmid contained an acylCoA oxidase (AOX) PPRE and TK promoter upstream of the luciferase reporter cDNA. Appropriate PPARs and RXRα were constitutively expressed using plasmids containing the CMV promoter. […] In order to eliminate such interference, a GAL4 chimeric system was used in which the DNA binding domain of the transfected PPAR was replaced by that of GAL4, and the GAL4 response element was utilized in place of the AOX PPRE. Cotransfection efficacy was determined relative to PPARα agonist and PPARβ agonist reference molecules. Efficacies were determined by computer fit to a concentration-response curve, or in some cases at a single high concentration of agonist (10 μM). For binding or cotransfection studies with receptors other than PPARs, similar assays were carried out using appropriate ligands, receptors, reporter constructs, etc., for that particular receptor.
(§2) These studies were carried out to evaluate the ability of compounds of the invention to bind to and/or activate various nuclear transcription factors, particularly huPPARα (“hu” indicates “human”) and huPPARγ. These studies provide in vitro data concerning efficacy and selectivity of compounds of the invention. Furthermore, binding and cotransfection data for compounds of the invention were compared with corresponding data for marketed compounds that act on either huPPARα or huPPARγ.

For assay [2], the target named is T2, huPPARγ (Homo sapiens, UniProt P37231).
T2 sequence (P37231 1-505): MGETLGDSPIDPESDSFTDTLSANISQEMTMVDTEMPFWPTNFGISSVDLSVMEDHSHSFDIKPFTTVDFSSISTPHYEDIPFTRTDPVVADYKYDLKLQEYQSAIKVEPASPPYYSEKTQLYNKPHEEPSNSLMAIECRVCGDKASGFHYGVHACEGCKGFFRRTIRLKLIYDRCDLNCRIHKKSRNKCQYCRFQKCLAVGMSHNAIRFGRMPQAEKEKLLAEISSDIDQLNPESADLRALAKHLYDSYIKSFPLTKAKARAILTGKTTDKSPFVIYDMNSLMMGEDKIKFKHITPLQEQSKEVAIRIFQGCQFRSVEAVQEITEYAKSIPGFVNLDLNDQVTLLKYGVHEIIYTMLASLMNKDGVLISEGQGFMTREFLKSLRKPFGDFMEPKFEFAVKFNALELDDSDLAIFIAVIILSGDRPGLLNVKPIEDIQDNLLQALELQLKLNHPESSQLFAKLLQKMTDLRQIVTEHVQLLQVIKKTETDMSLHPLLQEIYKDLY
T2 sequence (P19793 1-462 partner): T1 sequence (P19793 1-462 partner)
The experiment in a line: DNA-dependent binding (ABCD binding), SPA, huPPARγ. To be noted: displacement of tritium-labeled PPARγ agonist radioligand. The procedure: as §1, §2

Assay [3] addresses T2, huPPARγ. The experiment in a line: Cotransfection assay in CV-1 cells, huPPARγ. The format is cell-based. Details: expressed in transfected cells; host or cells: CV-1 cells. To be noted: AOX PPRE luciferase reporter, relative to agonist reference molecule; for Emax: read-out: huPPARγ CTF Efficacy. How it is done:
as §1, with “Tritium-labeled PPARγ and PPARα agonists were used as radioligands for generating displacement curves and IC50 values with compounds of the invention.” left out, “Cotransfection efficacy was determined relative to PPARα agonist and PPARβ agonist reference molecules.” left out
as §2

For assay [4], the system named is huPPARα. The experiment in a line: Cotransfection assay in CV-1 cells, huPPARα (GAL4 chimeric system). The format is cell-based, human. The conditions noted are these: luciferase reporter, relative to PPARα agonist reference molecule. How it is done: DNA-dependent binding (ABCD binding) was carried out using SPA technology with PPAR receptors. Tritium-labeled PPARγ and PPARα agonists were used as radioligands for generating displacement curves and IC50 values with compounds of the invention. Cotransfection assays were carried out in CV-1 cells. The reporter plasmid contained an acylCoA oxidase (AOX) PPRE and TK promoter upstream of the luciferase reporter cDNA. Appropriate PPARs and RXRα were constitutively expressed using plasmids containing the CMV promoter. For PPARα and PPARβ, interference by endogenous PPARγ in CV-1 cells was an issue. In order to eliminate such interference, a GAL4 chimeric system was used in which the DNA binding domain of the transfected PPAR was replaced by that of GAL4, and the GAL4 response element was utilized in place of the AOX PPRE. Cotransfection efficacy was determined relative to PPARα agonist and […] reference molecules. Efficacies were determined by computer fit to a concentration-response curve, or in some cases at a single high concentration of agonist (10 μM). For binding or cotransfection studies with receptors other than PPARs, similar assays were carried out using appropriate ligands, receptors, reporter constructs, etc., for that particular receptor.
as §2
(In general: Reporter assays use an easily measured gene product as a stand-in for the process of interest.)

For the compound `Cc1oc(-c2cccc(-c3ccccc3)c2)nc1CCOc1ccc(OC(C)(C)C(=O)O)c(CC2CCCCC2)c1` [Example 26, 2-{4-[2-(2-Biphenyl-3-yl-5-methyloxazol-4-yl)-ethoxy]-2-cyclohexylmethyl-phenoxy}-2-methyl-propionic acid], the IC50 (as a rule, the concentration that gives 50% inhibition) was 78 nM in assay [1] and 33 nM in assay [2]. The Emax in assay [3] was 73%. Moreover, in assay [4], the “huPPARα CTF Efficacy” value is listed as 111%.
In the same order, the values of `Cc1oc(-c2ccc(-c3ccccc3)cc2)nc1CCOc1ccc(OC(C)(C)C(=O)O)c(CCc2ccccc2)c1` [Example 28, 2-{4-[2-(2-Biphenyl-4-yl-5-methyloxazol-4-yl)ethoxy]-2-phenethylphenoxy}-2-methylpropionic acid] are 172 nM, 140 nM, 63% and 93%.
For `Cc1oc(-c2ccc(-c3ccccc3F)cc2)nc1CCOc1ccc(OC(C)(C)C(=O)O)cc1` [Example 13, 2-(4-{2-[2-(2′-Fluorobiphenyl-4-yl)-5-methyloxazol-4-yl]-ethoxy}-phenoxy)-2-methylpropionic acid], in that order: 475 nM, 928 nM, 100% and 84%.
As for `CCCCc1cc(OC(C)(C)C(=O)O)ccc1OCCc1nc(-c2cccc(-c3ccccc3)c2)oc1C` [Example 32, 2-{4-[2-(2-Biphenyl-3-yl-5-methyloxazol-4-yl)ethoxy]-3-butylphenoxy}-2-methylpropionic acid], the 50% inhibitory concentration (IC50) is 47 nM in assay [1] and 12 nM in assay [2]. Also, in assay [3], the Emax was determined as 60%. Besides, in assay [4], the “huPPARα CTF Efficacy” value was 91%.
On to `CC(C)(Oc1ccc(C(=O)c2ccc(Cl)cc2)cc1)C(=O)O` [Fenofibric acid, reference compound], for which the “huPPARγ CTF Efficacy” value in assay [3] stood at 0%. In addition, the “huPPARα CTF Efficacy” value in assay [4] was determined as 16%.
As to `Cc1oc(-c2ccc(-c3ccccc3)cc2)nc1CCOc1ccc(OC(C)(C)C(=O)O)c(CC2CCCCC2)c1` [Example 25, 2-{4-[2-(2-Biphenyl-4-yl-5-methyloxazol-4-yl)-ethoxy]-2-cyclohexylmethyl-phenoxy}-2-methyl-propionic acid], the IC50 in assay [1] worked out at 125 nM; in assay [2], 81 nM. The Emax in assay [3] is 71%. Further, the “huPPARα CTF Efficacy” value in assay [4] was 104%.
In the same order, the values of `Cc1oc(-c2ccc(-c3ccccc3)cc2)nc1CCSc1ccc(OC(C)(C)C(=O)O)cc1` [Example 47, 2-{4-[2-(2-Biphenyl-4-yl-5-methyloxazol-4-yl)-ethylsulfanyl]-phenoxy}-2-methyl-propionic acid] are 371 nM, 1530 nM, 126% and 90%.
In the same order, the values of `Cc1oc(-c2ccc(-c3ccc[nH]3)cc2)nc1CCOc1ccc(OC(C)(C)C(=O)O)cc1` [Example 18, 2-Methyl-2-[4-(2-{5-methyl-2-[4-(1H-pyrrol-2-yl)-phenyl]-oxazol-4-yl}-ethoxy)-phenoxy]propionic acid] are 539 nM, 1790 nM, 145% and 97%.
As for `COc1ccccc1-c1ccc(-c2nc(CCOc3ccc(OC(C)(C)C(=O)O)cc3)c(C)o2)cc1` [Example 10, 2-(4-{2-[2-(2′-Methoxy-biphenyl-4-yl)-5-methyloxazol-4-yl]-ethoxy}-phenoxy)-2-methylpropionic acid], the half-maximal inhibitory concentration (IC50) in assay [1] was 350 nM; in assay [2], 1060 nM. Further, the Emax in assay [3] turned out to be 80%. Besides, in assay [4], the “huPPARα CTF Efficacy” value was 111%.
In the same order, the values of `Cc1oc(-c2ccc(-c3ccccc3)cc2)nc1CCOc1ccc(OC(C)(C)C(=O)O)c(Cc2ccccc2)c1` [Example 36, 2-{2-Benzyl-4-[2-(2-biphenyl-4-yl-5-methyloxazol-4-yl)-ethoxy]-phenoxy}-2-methyl-propionic acid] are 140 nM, 62 nM, 92% and 140%.
In the same order, the values of `Cc1oc(-c2ccc(-c3ccccc3)cc2)nc1CCOc1ccc(OC(C)(C)C(=O)O)cc1CC1CCCCC1` [Example 34, 2-{4-[2-(2-Biphenyl-4-yl-5-methyloxazol-4-yl)ethoxy]-3-cyclohexylmethylphenoxy}-2-methylpropionic acid] are 193 nM, 227 nM, 55% and 180%.
As to `Cc1oc(-c2cccc(-c3ccccc3)c2)nc1CCOc1ccc(OC(C)(C)C(=O)O)c(Cc2ccccc2)c1` [Example 35, 2-{2-Benzyl-4-[2-(2-biphenyl-3-yl-5-methyloxazol-4-yl)-ethoxy]-phenoxy}-2-methyl-propionic acid], the 50% inhibitory concentration (IC50) in assay [1] was 65 nM; in assay [2] it was 24 nM. For the same compound, the Emax in assay [3] was found to be 61%. In assay [4], the “huPPARα CTF Efficacy” value is on record as 90%.
